Results reported in PubChem BioAssay AID256 (DTP/NCI, 2004).
Several values for one entry are separate records, joined by “and”; a condition that tells them apart may be missing. Equal entries are not always repeated. Inconclusive results and toxic doses are left out. The calls were made as follows: active = survival T/C of 150% or more; inactive = T/C below 125% in these data.

Test system: CD2F1 mice, L1210 leukemia ip, survival T/C
Assay: NCI In Vivo Anticancer Drug Screen. Data for tumor model L1210 Leukemia (intraperitoneal) in CD2F1 (CDF1) mice
Details: higher = longer survival
Procedure, shortened: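 Mice carrying a transplanted tumor received test compound or vehicle alone. The value is the measurement in the treated group divided by that in the vehicle-treated control group.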

[1] = endpoint: mean survival time, dose: 12.5 mg/kg/injection, schedule: Q01DX009 (ip), vehicle: saline with Tween-80
[2] = endpoint: mean survival time, dose: 25.0 mg/kg/injection, schedule: Q01DX009 (ip), vehicle: saline with Tween-80
[3] = endpoint: mean survival time, dose: 25.0 mg/kg/injection, schedule: Q04DX003 (ip), vehicle: saline with Tween-80
[4] = endpoint: mean survival time, dose: 50.0 mg/kg/injection, schedule: Q01DX009 (ip), vehicle: saline with Tween-80
[5] = endpoint: mean survival time, dose: 50.0 mg/kg/injection, schedule: Q04DX003 (ip), vehicle: saline with Tween-80
[6] = endpoint: mean survival time, dose: 100.0 mg/kg/injection, schedule: Q04DX003 (ip), vehicle: saline with Tween-80
[7] = endpoint: mean survival time, dose: 100.0 mg/kg/injection, schedule: Q01DX009 (ip), vehicle: saline with Tween-80
[8] = endpoint: mean survival time, dose: 200.0 mg/kg/injection, schedule: Q04DX003 (ip), vehicle: saline with Tween-80
[9] = endpoint: mean survival time, dose: 400.0 mg/kg/injection, schedule: Q04DX003 (ip), vehicle: saline with Tween-80
[10] = endpoint: mean survival time, dose: 25.0 mg/kg/injection, schedule: Q01DX009 (ip), vehicle: Klucel (hydroxypropylcellulose) (HPC)
[11] = endpoint: mean survival time, dose: 50.0 mg/kg/injection, schedule: Q01DX009 (ip), vehicle: Klucel (hydroxypropylcellulose) (HPC)
[12] = endpoint: mean survival time, dose: 100.0 mg/kg/injection, schedule: Q01DX009 (ip), vehicle: Klucel (hydroxypropylcellulose) (HPC)
[13] = endpoint: mean survival time, dose: 200.0 mg/kg/injection, schedule: Q01DX009 (ip), vehicle: Klucel (hydroxypropylcellulose) (HPC)
[14] = endpoint: mean survival time, dose: 400.0 mg/kg/injection, schedule: Q01DX009 (ip), vehicle: Klucel (hydroxypropylcellulose) (HPC)

Measured: T/C

CCc1nc2cc(C)c(C)cc2[nH]1
inactive: [1] 97 % of control | [2] 100 % of control | [3] 89 % of control | [4] 95 % of control | [5] 89 % of control | [6] 93 % of control

CC1(C)CC(C)(c2ccc(O)cc2)c2ccccc2O1 (stereo not drawn)
inactive: [7] 90 % of control | [6] 92 % of control | endpoint: mean survival time, dose: 200.0 mg/kg/injection, schedule: Q01DX009 (ip), vehicle: saline with Tween-80 92 % of control | [8] 92 % of control | endpoint: mean survival time, dose: 400.0 mg/kg/injection, schedule: Q01DX009 (ip), vehicle: saline with Tween-80 91 % of control | [9] 90 % of control

Cc1cccc(NC(N)=S)n1
inactive: endpoint: mean survival time, dose: 12.5 mg/kg/injection, schedule: Q01DX009 (ip), vehicle: other 103 % of control | endpoint: mean survival time, dose: 25.0 mg/kg/injection, schedule: Q01DX009 (ip), vehicle: other 107 % of control | endpoint: mean survival time, dose: 50.0 mg/kg/injection, schedule: Q01DX009 (ip), vehicle: other 107 % of control | endpoint: mean survival time, dose: 100.0 mg/kg/injection, schedule: Q01DX009 (ip), vehicle: other 91 % of control | endpoint: mean survival time, dose: 200.0 mg/kg/injection, schedule: Q01DX009 (ip), vehicle: other 111 % of control

CC(=O)OCCC(C)Nc1ccnc2cc(Cl)ccc12 (stereo not drawn)
inactive: endpoint: mean survival time, dose: 10.0 mg/kg/injection, schedule: Q01DX009 (ip), vehicle: saline with Tween-80 100 % of control | endpoint: mean survival time, dose: 20.0 mg/kg/injection, schedule: Q01DX009 (ip), vehicle: saline with Tween-80 102 % of control | endpoint: mean survival time, dose: 40.0 mg/kg/injection, schedule: Q01DX009 (ip), vehicle: saline with Tween-80 96 % of control | [6] 100 % of control

O=C(O)C1C(C(=O)O)C2C3C4C1C1C2C3C41 (stereo not drawn)
inactive: [6] 108 % of control | [8] 104 % of control | [9] 98 % of control

CC(=O)N(C)N(Cc1ccc(C#N)cc1)C(C)=O
inactive: [10] 97 % of control | [11] 93 % of control | [12] 97 % of control | [13] 97 % of control | [14] 98 % of control

COc1cc2c(cc1OC)C(NC=O)CCC2 (stereo not drawn)
inactive: endpoint: mean survival time, dose: 12.5 mg/kg/injection, schedule: Q01DX009 (ip), vehicle: water 102 % of control | endpoint: mean survival time, dose: 25.0 mg/kg/injection, schedule: Q01DX009 (ip), vehicle: water 102 % of control | endpoint: mean survival time, dose: 50.0 mg/kg/injection, schedule: Q01DX009 (ip), vehicle: water 102 % of control | endpoint: mean survival time, dose: 100.0 mg/kg/injection, schedule: Q01DX009 (ip), vehicle: water 100 % of control | endpoint: mean survival time, dose: 200.0 mg/kg/injection, schedule: Q01DX009 (ip), vehicle: water 104 % of control

Clc1nc2nc[nH]c2nc1Cl
inactive: endpoint: mean survival time, dose: 25.0 mg/kg/injection, schedule: Q01DX009 (ip), vehicle: saline sonified 97 % of control | endpoint: mean survival time, dose: 50.0 mg/kg/injection, schedule: Q01DX009 (ip), vehicle: saline sonified 89 % of control | endpoint: mean survival time, dose: 100.0 mg/kg/injection, schedule: Q01DX009 (ip), vehicle: saline sonified 98 % of control

CCCCCCCCCCCCCCCCCC[N+]1(C)CCC1C (stereo not drawn)
inactive: endpoint: mean survival time, dose: 1.56 mg/kg/injection, schedule: Q01DX001 (ip), vehicle: saline 101 % of control | endpoint: mean survival time, dose: 3.12 mg/kg/injection, schedule: Q01DX001 (ip), vehicle: saline 102 % of control

CN(C)C=Nc1cccc2[nH]c3ccccc3c12
inactive: [1] 92 % of control | [2] 104 % of control | [4] 97 % of control | endpoint: mean survival time, dose: 100.0 mg/kg/injection, schedule: Q01DX001 (ip), vehicle: saline with Tween-80 92 % of control | [7] 103 % of control | endpoint: mean survival time, dose: 200.0 mg/kg/injection, schedule: Q01DX001 (ip), vehicle: saline with Tween-80 101 % of control

Oc1c(Br)cc(Br)cc1C=Nc1ccc(Br)cc1
inactive: [6] 110 % of control | [8] 97 % of control | [9] 95 % of control

C=C1C(=O)OC2/C=C(\C)CC/C=C(/C)CC(OC(=O)/C(=C/CO)CO)C12 (stereo not drawn)
inactive: endpoint: mean survival time, dose: 10.0 mg/kg/injection, schedule: Q01DX009 (ip), vehicle: Klucel (hydroxypropylcellulose) (HPC) 96 % of control | endpoint: mean survival time, dose: 20.0 mg/kg/injection, schedule: Q01DX009 (ip), vehicle: Klucel (hydroxypropylcellulose) (HPC) 100 % of control | endpoint: mean survival time, dose: 40.0 mg/kg/injection, schedule: Q01DX009 (ip), vehicle: Klucel (hydroxypropylcellulose) (HPC) 95 % of control

CC1(C)CC23C4COC(=O)C2CCC1C3CC4=O (stereo not drawn)
inactive: endpoint: mean survival time, dose: 3.12 mg/kg/injection, schedule: Q01DX009 (ip), vehicle: DMSO 95 % of control | endpoint: mean survival time, dose: 6.25 mg/kg/injection, schedule: Q01DX009 (ip), vehicle: DMSO 96 % of control and 98 % of control | endpoint: mean survival time, dose: 12.5 mg/kg/injection, schedule: Q01DX009 (ip), vehicle: DMSO 90 % of control and 94 % of control | endpoint: mean survival time, dose: 25.0 mg/kg/injection, schedule: Q01DX009 (ip), vehicle: DMSO 94 % of control and 98 % of control | endpoint: mean survival time, dose: 50.0 mg/kg/injection, schedule: Q01DX009 (ip), vehicle: DMSO 104 % of control | endpoint: mean survival time, dose: 100.0 mg/kg/injection, schedule: Q01DX009 (ip), vehicle: DMSO 93 % of control | endpoint: mean survival time, dose: 200.0 mg/kg/injection, schedule: Q01DX009 (ip), vehicle: DMSO 112 % of control

O=C1c2ccccc2CC12OC2c1ccccc1 (stereo not drawn)
inactive: [10] 103 % of control | [11] 110 % of control | [12] 89 % of control | [13] 98 % of control | [14] 98 % of control

O=C(O)/C=C/C(=O)Nc1cccc2c1C(=O)c1ccccc1-2
inactive: [2] 97 % of control | [4] 94 % of control | [7] 102 % of control

Oc1cc(O)c(Cl)cc1Cl
inactive: endpoint: mean survival time, dose: 25.0 mg/kg/injection, schedule: Q01DX001 (ip), vehicle: saline 103 % of control | endpoint: mean survival time, dose: 50.0 mg/kg/injection, schedule: Q01DX001 (ip), vehicle: saline 95 % of control | endpoint: mean survival time, dose: 100.0 mg/kg/injection, schedule: Q01DX001 (ip), vehicle: saline 95 % of control and 104 % of control

O=C(c1ccc([N+](=O)[O-])cc1)C(Br)C(Br)c1ccnc2ccccc12 (stereo not drawn)
inactive: endpoint: mean survival time, dose: 12.5 mg/kg/injection, schedule: Q04DX003 (ip), vehicle: saline with Tween-80 92 % of control | [3] 98 % of control | [5] 95 % of control

O=C1CCCCCCCCCCC1Sc1ccccc1 (stereo not drawn)
inactive: [6] 91 % of control | [8] 100 % of control | [9] 91 % of control

O=P(O)(CCCCl)c1ccccc1
inactive: endpoint: mean survival time, dose: 25.0 mg/kg/injection, schedule: Q04DX002 (ip), vehicle: saline with Tween-80 95 % of control | endpoint: mean survival time, dose: 50.0 mg/kg/injection, schedule: Q04DX002 (ip), vehicle: saline with Tween-80 91 % of control | endpoint: mean survival time, dose: 100.0 mg/kg/injection, schedule: Q04DX002 (ip), vehicle: saline with Tween-80 98 % of control | endpoint: mean survival time, dose: 200.0 mg/kg/injection, schedule: Q04DX002 (ip), vehicle: saline with Tween-80 91 % of control

CCC(C)C(C(=O)O)C(=O)O (stereo not drawn)
inactive: endpoint: mean survival time, dose: 75.0 mg/kg/injection, schedule: Q01DX001 (ip), vehicle: saline 100 % of control | endpoint: mean survival time, dose: 150.0 mg/kg/injection, schedule: Q01DX001 (ip), vehicle: saline 100 % of control | endpoint: mean survival time, dose: 300.0 mg/kg/injection, schedule: Q01DX001 (ip), vehicle: saline 102 % of control

COc1nc(NC2OC(CO)C(O)C(O)C2O)c(Br)c(=O)[nH]1 (stereo not drawn)
inactive: endpoint: median survival time, dose: 12.5 mg/kg/injection, schedule: Q01DX005 (ip), vehicle: saline 100 % of control | endpoint: median survival time, dose: 25.0 mg/kg/injection, schedule: Q01DX005 (ip), vehicle: saline 101 % of control | endpoint: median survival time, dose: 50.0 mg/kg/injection, schedule: Q01DX005 (ip), vehicle: saline 102 % of control | endpoint: median survival time, dose: 100.0 mg/kg/injection, schedule: Q01DX005 (ip), vehicle: saline 101 % of control | endpoint: median survival time, dose: 200.0 mg/kg/injection, schedule: Q01DX005 (ip), vehicle: saline 101 % of control

FC(F)(F)COP1(OCC(F)(F)F)=NP(OCC(F)(F)F)(OCC(F)(F)F)=NP(OCC(F)(F)F)(OCC(F)(F)F)=NP(OCC(F)(F)F)(OCC(F)(F)F)=N1
inactive: endpoint: mean survival time, dose: 50.0 mg/kg/injection, schedule: Q01DX009 (ip), vehicle: saline 100 % of control | endpoint: mean survival time, dose: 100.0 mg/kg/injection, schedule: Q01DX009 (ip), vehicle: saline 100 % of control | endpoint: mean survival time, dose: 100.0 mg/kg/injection, schedule: Q04DX003 (ip), vehicle: saline 97 % of control | endpoint: mean survival time, dose: 200.0 mg/kg/injection, schedule: Q01DX009 (ip), vehicle: saline 97 % of control | endpoint: mean survival time, dose: 200.0 mg/kg/injection, schedule: Q04DX003 (ip), vehicle: saline 97 % of control | endpoint: mean survival time, dose: 400.0 mg/kg/injection, schedule: Q04DX003 (ip), vehicle: saline 105 % of control
